Data from PubChem BioAssay (NCI).
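Each compound was tested at five concentrations against cells in 96-well plates for 48 hours. GI50 marks 50% less growth. The concentration for full growth arrest is given as TGI.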

Legend:
Assay in all cases: NCI tumour cell line growth inhibition, 48 h
786-0 renal = tested on: 786-0 renal
A549 NSCLC = tested on: A549 NSCLC
BT-549 breast = tested on: BT-549 breast
CAKI-1 renal = tested on: CAKI-1 renal
CCRF-CEM leukemia = tested on: CCRF-CEM leukemia
COLO 205 colon = tested on: COLO 205 colon
DU-145 prostate = tested on: DU-145 prostate
EKVX NSCLC = tested on: EKVX NSCLC
HCC-2998 colon = tested on: HCC-2998 colon
HCT-116 colon = tested on: HCT-116 colon
HCT-15 colon = tested on: HCT-15 colon
HL-60(TB) leukemia = tested on: HL-60(TB) leukemia
HOP-62 NSCLC = tested on: HOP-62 NSCLC
HOP-92 NSCLC = tested on: HOP-92 NSCLC
HS 578T breast = tested on: HS 578T breast
HT29 colon = tested on: HT29 colon
IGROV1 ovarian = tested on: IGROV1 ovarian
K-562 leukemia = tested on: K-562 leukemia
KM12 colon = tested on: KM12 colon
MALME-3M melanoma = tested on: MALME-3M melanoma
MCF7 breast = tested on: MCF7 breast
MDA-MB-231 breast = tested on: MDA-MB-231 breast
MDA-MB-435 = tested on: MDA-MB-435
MOLT-4 leukemia = tested on: MOLT-4 leukemia
NCI-H23 lung = tested on: NCI-H23 lung
NCI-H522 lung = tested on: NCI-H522 lung
OVCAR-4 ovarian = tested on: OVCAR-4 ovarian
OVCAR-8 ovarian = tested on: OVCAR-8 ovarian
PC-3 prostate = tested on: PC-3 prostate
RPMI-8226 leukemia = tested on: RPMI-8226 leukemia
RXF 393 renal = tested on: RXF 393 renal
SF-268 CNS = tested on: SF-268 CNS
SF-295 CNS = tested on: SF-295 CNS
SK-MEL-28 melanoma = tested on: SK-MEL-28 melanoma
SK-MEL-5 melanoma = tested on: SK-MEL-5 melanoma
SK-OV-3 ovarian = tested on: SK-OV-3 ovarian
SN12C renal = tested on: SN12C renal
SNB-19 CNS = tested on: SNB-19 CNS
SNB-75 CNS = tested on: SNB-75 CNS
SR leukemia = tested on: SR leukemia
SW-620 colon = tested on: SW-620 colon
T-47D breast = tested on: T-47D breast
U251 CNS = tested on: U251 CNS
UACC-257 melanoma = tested on: UACC-257 melanoma

Work on `Oc1ccc(CSc2nnc(-c3ccc(Cl)cc3)o2)c2cccnc12` yielded a GI50 (786-0 renal) of 3220 nM, a TGI (786-0 renal) of over 100000 nM and a GI50 (A549 NSCLC) of 2780 nM. For the same compound, the TGI (A549 NSCLC) was over 100000 nM, the GI50 (BT-549 breast) was 2470 nM and the TGI (BT-549 breast) was over 100000 nM. The GI50 (CAKI-1 renal) was 2910 nM, the TGI (CAKI-1 renal) was over 100000 nM and the GI50 (CCRF-CEM leukemia) was 1000 nM. The TGI (CCRF-CEM leukemia) was over 100000 nM, the GI50 (COLO 205 colon) was over 100000 nM and the TGI (COLO 205 colon) was over 100000 nM. For the same compound, the GI50 (DU-145 prostate) was 3670 nM, the TGI (DU-145 prostate) was over 100000 nM and the GI50 (EKVX NSCLC) was 2760 nM. For the same compound, the TGI (EKVX NSCLC) was over 100000 nM, the GI50 (HCC-2998 colon) was 2290 nM and the TGI (HCC-2998 colon) was over 100000 nM. It also gave a GI50 (HCT-116 colon) of 1760 nM, a TGI (HCT-116 colon) of over 100000 nM and a GI50 (HCT-15 colon) of 698 nM. The TGI (HCT-15 colon) was over 100000 nM, the GI50 (HL-60(TB) leukemia) was 1910 nM and the TGI (HL-60(TB) leukemia) was 9570 nM. The GI50 (HOP-62 NSCLC) was 2920 nM, the TGI (HOP-62 NSCLC) was over 100000 nM and the GI50 (HOP-92 NSCLC) was 1140 nM. For the same compound, the TGI (HOP-92 NSCLC) was 6720 nM, the GI50 (HS 578T breast) was 1620 nM and the TGI (HS 578T breast) was 64700 nM. For the same compound, the GI50 (HT29 colon) was over 100000 nM, the TGI (HT29 colon) was over 100000 nM and the GI50 (IGROV1 ovarian) was 2800 nM. For the same compound, the TGI (IGROV1 ovarian) was over 100000 nM, the GI50 (K-562 leukemia) was 2170 nM and the TGI (K-562 leukemia) was over 100000 nM. The GI50 (KM12 colon) was 1960 nM, the TGI (KM12 colon) was over 100000 nM and the GI50 (MALME-3M melanoma) was 2870 nM. The TGI (MALME-3M melanoma) was over 100000 nM, the GI50 (MCF7 breast) was 2660 nM and the TGI (MCF7 breast) was over 100000 nM. The GI50 (MDA-MB-231 breast) was 3180 nM, the TGI (MDA-MB-231 breast) was over 100000 nM and the GI50 (MDA-MB-435) was 2960 nM. The TGI (MDA-MB-435) was over 100000 nM, the GI50 (MOLT-4 leukemia) was 2370 nM and the TGI (MOLT-4 leukemia) was over 100000 nM. It also gave a GI50 (NCI-H23 lung) of 2420 nM, a TGI (NCI-H23 lung) of over 100000 nM and a GI50 (NCI-H522 lung) of 2920 nM. It also gave a TGI (NCI-H522 lung) of over 100000 nM, a GI50 (OVCAR-4 ovarian) of 3070 nM and a TGI (OVCAR-4 ovarian) of over 100000 nM. For the same compound, the GI50 (OVCAR-8 ovarian) was 2320 nM, the TGI (OVCAR-8 ovarian) was over 100000 nM and the GI50 (PC-3 prostate) was 1490 nM. For the same compound, the TGI (PC-3 prostate) was over 100000 nM, the GI50 (RPMI-8226 leukemia) was 1220 nM and the TGI (RPMI-8226 leukemia) was over 100000 nM. For the same compound, the GI50 (RXF 393 renal) was 2370 nM, the TGI (RXF 393 renal) was over 100000 nM and the GI50 (SF-268 CNS) was 1560 nM. The TGI (SF-268 CNS) was over 100000 nM, the GI50 (SF-295 CNS) was 2340 nM and the TGI (SF-295 CNS) was over 100000 nM. The GI50 (SK-MEL-28 melanoma) was 2380 nM, the TGI (SK-MEL-28 melanoma) was over 100000 nM and the GI50 (SK-MEL-5 melanoma) was 1890 nM. For the same compound, the TGI (SK-MEL-5 melanoma) was 5160 nM, the GI50 (SK-OV-3 ovarian) was 3150 nM and the TGI (SK-OV-3 ovarian) was over 100000 nM. For the same compound, the GI50 (SN12C renal) was 2540 nM, the TGI (SN12C renal) was over 100000 nM and the GI50 (SNB-19 CNS) was 1520 nM. The TGI (SNB-19 CNS) was over 100000 nM, the GI50 (SNB-75 CNS) was 1520 nM and the TGI (SNB-75 CNS) was 7810 nM. It also gave a GI50 (SR leukemia) of 777 nM, a TGI (SR leukemia) of over 100000 nM and a GI50 (SW-620 colon) of 2910 nM. For the same compound, the TGI (SW-620 colon) was over 100000 nM, the GI50 (T-47D breast) was 2540 nM and the TGI (T-47D breast) was over 100000 nM. It also gave a GI50 (U251 CNS) of 1110 nM, a TGI (U251 CNS) of over 100000 nM and a GI50 (UACC-257 melanoma) of 3190 nM. For the same compound, the TGI (UACC-257 melanoma) was over 100000 nM.
